The record followed here is patent US20140005165A1, “SUBSTITUTED 3-AZABICYCLO[3.1.0]HEXANE DERIVATIVES USEFUL AS CCR2 ANTAGONISTS” (priority 2011, published 2014).

The target of the first test is T1, human CCR2 (Homo sapiens, UniProt P41597).
T1 construct: expressed in transfected cells; host or cells: Ba/F3 cells (membrane preparation)
T1 sequence (P41597 whole entry): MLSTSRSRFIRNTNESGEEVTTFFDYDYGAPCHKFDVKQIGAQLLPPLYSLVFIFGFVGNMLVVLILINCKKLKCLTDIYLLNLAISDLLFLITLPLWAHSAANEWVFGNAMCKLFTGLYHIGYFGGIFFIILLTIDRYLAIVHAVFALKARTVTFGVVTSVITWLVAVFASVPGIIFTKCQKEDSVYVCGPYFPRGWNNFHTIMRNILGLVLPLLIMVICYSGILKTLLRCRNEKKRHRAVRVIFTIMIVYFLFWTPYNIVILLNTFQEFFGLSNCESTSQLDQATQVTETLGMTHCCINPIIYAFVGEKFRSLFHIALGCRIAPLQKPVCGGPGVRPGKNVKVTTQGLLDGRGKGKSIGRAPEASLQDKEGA
As to the kind of experiment: CCR2 Membrane Binding Assay (SPA radio-ligand binding, 125I-rhMCP-1). Conditions: membranes from Ba/F3 cells transfected with human CCR2; 0.03 nM 125I-rhMCP-1; 4 h room temperature. The protocol:
The radio-ligand binding assay was done using scintillation proximity assay (SPA) technology. Briefly, membranes (1 μg per assay point) from Ba/F3 cells transfected with human CCR2, and wheat germ agglutinin-coated SPA beads (80 μg per point; Amersham, Arlington Heights, Ill.), were pre-incubated for 30 min at room temperature in CCR2 buffer (50 mM HEPES (pH=7.4), 10 mM MgCl2, 10 mM NaCl, 1 mM CaCL2, 0.1% BSA, 10 μg/ml Saponin). At this point pre-bound SPA bead, membrane complex was incubated at room temperature for 4 h with varying concentrations of punitive CCR2 antagonists (in 1% DMSO, final) and 0.03 nM ^125I-rhMCP-1 in CCR2Buffer (S.A. 2200 Ci/mmol, PerkinElmer Life and Analytical Science, Boston, Mass.; NEX332). Binding competition was measured using a 1450 Microbeta Trilux counter (Wallac, Gaithersburg, Md.). Binding constants (IC50 and slope) were calculated using GraphPad Prism software (GraphPad Software, Inc., La Jolla Calif.).
`COc1ccc([C@H]2CC[C@@H](N3C[C@@H]4[C@H](C3)[C@H]4C(=O)NCC(=O)Nc3cccc(C(F)(F)F)c3)CC2)cc1` [Compound 130]: the IC50 – broadly, the concentration at which inhibition is half-maximal – worked out at 4 nM.

`COc1ccc([C@H]2CC[C@@H](N3C[C@@H]4[C@H](C3)[C@H]4C(=O)NCC(=O)Nc3cccc(C(F)(F)F)c3)CC2)cn1` [Compound 132]: the IC50 came out at 3.4 nM. The IC50 values of the last two compounds are within 1.5-fold of each other.

For `O=C(CNC(=O)[C@H]1[C@@H]2CN([C@H]3CC[C@@H](c4ccc5c(c4)OCO5)CC3)C[C@@H]21)Nc1cccc(C(F)(F)F)c1` [Compound 143], the IC50 worked out at 4.1 nM.

The compound `COc1ccc(C2(O)CCC(N3C[C@@H]4[C@H](C3)[C@H]4C(=O)NCC(=O)Nc3cccc(C(F)(F)F)c3)CC2)cn1` (stereo partly shown) [Compound 147] had an IC50 of 4.5 nM.

Compound `Cn1ncc2cc([C@H]3CC[C@@H](N4C[C@@H]5[C@H](C4)[C@H]5C(=O)NCC(=O)Nc4cccc(C(F)(F)F)c4)CC3)ccc21` [Compound 150] had an IC50 of 6.7 nM.

Regarding `O=C(CNC(=O)[C@H]1[C@@H]2CN(C3CCC(O)(c4ccc5c(c4)OCO5)CC3)C[C@@H]21)Nc1cccc(C(F)(F)F)c1` (stereo partly shown) [Compound 152], the IC50 came to 10 nM.

`COc1ncc([C@H]2CC[C@@H](N3C[C@@H]4[C@H](C3)[C@H]4C(=O)NCC(=O)Nc3cccc(C(F)(F)F)c3)CC2)c(OC)n1` [Compound 153] showed an IC50 of 4.5 nM.

The compound `O=C(CNC(=O)[C@H]1[C@@H]2CN([C@H]3CC[C@@H](NC(=O)OCc4ccccc4)CC3)C[C@@H]21)Nc1cccc(C(F)(F)F)c1` [Compound 154] returned an IC50 of 8.3 nM.

For `O=C(CNC(=O)[C@H]1[C@@H]2CN([C@H]3CC[C@@H](c4ccc(-c5ccccc5)cc4)CC3)C[C@@H]21)Nc1cccc(C(F)(F)F)c1` [Compound 156], the IC50 is 7.4 nM.

The same test, now with this note: membranes from Ba/F3 cells transfected with human CCR2; 0.03 nM 125I-rhMCP-1; class symbols.
For the compound `O=C([C@H]1[C@@H]2CN([C@H]3CC[C@@H](c4ccccc4)CC3)C[C@@H]21)N1CCN(c2cccc(C(F)(F)F)c2)C(=O)C1` [Compound 127], the “IC50 (nM)” value was “D (compounds with IC50 values between 701 nM and 110 nM are designated as D class compounds)”.

For `O=C([C@H]1[C@@H]2CN([C@H]3CC[C@@H](c4ccccc4)CC3)C[C@@H]21)N1CCC(Nc2nccc(C(F)(F)F)n2)CC1` [Compound 128], the IC50 was 201 to 700 nM.

With `CN(C(=O)[C@H]1[C@@H]2CN([C@H]3CC[C@@H](c4ccccc4)CC3)C[C@@H]21)[C@H]1CCN(c2ncc(C(F)(F)F)cn2)C1` [Compound 129], the 50% inhibitory concentration (IC50) fell in the range of 201 to 700 nM.

Turning to `COc1ccc([C@H]2CC[C@H](N3C[C@@H]4[C@H](C3)[C@H]4C(=O)NCC(=O)Nc3cccc(C(F)(F)F)c3)CC2)cc1` [Compound 131], the “IC50 (nM)” value is “D (compounds with IC50 values between 701 nM and 110 nM are designated as D class compounds)”.

In turn, `COc1ncc([C@H]2CC[C@@H](N3C[C@@H]4[C@H](C3)[C@H]4C(=O)NCC(=O)Nc3cccc(C(F)(F)F)c3)CC2)cn1` [Compound 133] came in with an IC50 of under 50 nM.

Regarding `O=C(CNC(=O)[C@H]1[C@@H]2CN([C@H]3CC[C@@H](c4cnc(O)nc4O)CC3)C[C@@H]21)Nc1cccc(C(F)(F)F)c1` [Compound 134], the half-maximal inhibitory concentration (IC50) lay within 51 to 200 nM.

On to `O=C(NCCc1cc(C(F)(F)F)cc(C(F)(F)F)c1)[C@H]1[C@@H]2CN([C@H]3CC[C@@H](c4ccccc4)CC3)C[C@@H]21` [Compound 135], for which the concentration for half-maximal inhibition (IC50) was 201 to 700 nM.

In turn, `CC(C)(C)OC(=O)N[C@H]1CC[C@@H](N2C[C@@H]3[C@H](C2)[C@H]3C(=O)NCC(=O)Nc2cccc(C(F)(F)F)c2)CC1` [Compound 136] returned an IC50 of 51 to 200 nM.

Consider `O=C(CNC(=O)[C@H]1[C@@H]2CN(C3CC=C(c4ccc5c(c4)OCO5)CC3)C[C@@H]21)Nc1cccc(C(F)(F)F)c1` (stereo partly shown) [Compound 139], for which the half-inhibitory concentration (IC50) was in the range of 201 to 700 nM.

Compound `O=C(CNC(=O)[C@H]1[C@@H]2CN([C@H]3CC[C@@H](C4Cc5ccccc5O4)CC3)C[C@@H]21)Nc1cccc(C(F)(F)F)c1` (stereo partly shown) [Compound 140] displayed a concentration for half-maximal inhibition (IC50) of 201 to 700 nM.

As to `O=C(CNC(=O)[C@H]1[C@@H]2CN([C@H]3CC[C@@H](NC(=O)c4ccccc4)CC3)C[C@@H]21)Nc1cccc(C(F)(F)F)c1` [Compound 141], the IC50 was under 50 nM.

As to `O=C(CNC(=O)[C@H]1[C@@H]2CN([C@H]3CC[C@@H](NS(=O)(=O)C4CC4)CC3)C[C@@H]21)Nc1cccc(C(F)(F)F)c1` [Compound 142], the “IC50 (nM)” value was “D (compounds with IC50 values between 701 nM and 110 nM are designated as D class compounds)”.

`COc1ccc(CC2CCCC(N3C[C@@H]4[C@H](C3)[C@H]4C(=O)NCC(=O)Nc3cccc(C(F)(F)F)c3)C2)cc1` (stereo partly shown) [Compound 144] returned a half-inhibitory concentration (IC50) of 51 to 200 nM.

Compound `COc1ccc(C[C@H]2CC[C@@H](N3C[C@@H]4[C@H](C3)[C@H]4C(=O)NCC(=O)Nc3cccc(C(F)(F)F)c3)CC2)cc1` [Compound 145] registered an IC50 of 51 to 200 nM.

As to `COc1ccc(CC2CCCC(N3C[C@@H]4[C@H](C3)[C@H]4C(=O)NCC(=O)Nc3cccc(C(F)(F)F)c3)C2)cc1` (stereo partly shown) [Compound 146], the IC50 fell in the range of 201 to 700 nM.

Compound `O=C(CNC(=O)[C@H]1[C@@H]2CN([C@H]3CC[C@@H](Nc4ccc(F)c(F)c4)CC3)C[C@@H]21)Nc1cccc(C(F)(F)F)c1` [Compound 148] registered a half-inhibitory concentration (IC50) of under 50 nM.

The compound `O=C(CNC(=O)[C@H]1[C@@H]2CN([C@H]3CC[C@H](Nc4ccc(F)c(F)c4)CC3)C[C@@H]21)Nc1cccc(C(F)(F)F)c1` [Compound 149] displayed an IC50 of 201 to 700 nM.

The compound `Cn1ncc2cc([C@H]3CC[C@H](N4C[C@@H]5[C@H](C4)[C@H]5C(=O)NCC(=O)Nc4cccc(C(F)(F)F)c4)CC3)ccc21` [Compound 151] returned a half-maximal inhibitory concentration (IC50) of 51 to 200 nM.

Consider `O=C(CNC(=O)[C@H]1[C@@H]2CN([C@H]3CC[C@H](NC(=O)OCc4ccccc4)CC3)C[C@@H]21)Nc1cccc(C(F)(F)F)c1` [Compound 155], for which the IC50 lay in the range of 201 to 700 nM.

Turning to `O=C(CNC(=O)[C@H]1[C@@H]2CN([C@H]3CC[C@@H](c4cnn(Cc5ccccc5)c4)CC3)C[C@@H]21)Nc1cccc(C(F)(F)F)c1` [Compound 157], the half-inhibitory concentration (IC50) was under 50 nM.

With `O=C(CNC(=O)[C@H]1[C@@H]2CN(CC3CC3)C[C@@H]21)Nc1cccc(C(F)(F)F)c1` [Compound 158], the “IC50 (nM)” value was “D (compounds with IC50 values between 701 nM and 110 nM are designated as D class compounds)”.

Compound `O=C(CNC(=O)[C@H]1[C@@H]2CN([C@H]3CC[C@@H](c4ccc(OCc5ccccc5)cc4)CC3)C[C@@H]21)Nc1cccc(C(F)(F)F)c1` [Compound 160] came in with an IC50 of under 50 nM.

Take `O=C(CNC(=O)[C@H]1[C@@H]2CN([C@H]3CC[C@H](c4ccc(OCc5ccccc5)cc4)CC3)C[C@@H]21)Nc1cccc(C(F)(F)F)c1` [Compound 161]: the IC50 lay within 201 to 700 nM.

In turn, `O=C(NCCc1cccc(C(F)(F)F)c1)C1[C@H]2CN(C3CCCOC3)C[C@@H]12` (stereo partly shown) [Compound 162] displayed an IC50 of 201 to 700 nM.

On to `O=C(CNC(=O)[C@H]1[C@@H]2CN([C@H]3CC[C@@H](c4cc(Br)c(O)c(Br)c4)CC3)C[C@@H]21)Nc1cccc(C(F)(F)F)c1` [Compound 163], for which the IC50 is under 50 nM.
